How the values were obtained:
[1] = tested on: Colo 205 chemo-sensitive human colonic adenocarcinoma cell line; experiment: MTT cytotoxicity assay, Colo 205; type: cell-based; conditions: for IC50: 72 h, MTT; for S.I. MRC-5/Colo 205: ratio of the indicated IC50 values
Method: (§1) Human colonic adenocarcinoma cell lines Colo 205 doxorubicin-sensitive (ATCC-CCL-222) and Colo 320/MDR-LRP multidrug resistant expressing ABCB1 (MDR1)-LRP (ATCC-CCL-220.1) were purchased from LGC Promochem (Teddington, UK). […] Cell lines were incubated at 37 °C, in a 5% CO2, 95% air atmosphere. The semi-adherent human colon cancer cells were detached with Trypsin-Versene (EDTA, Sigma, Steinheim, Germany) solution for 5 min at 37 °C. MRC-5 human embryonal lung fibroblast cell lines (ATCC CCL-171) were purchased from LGC Promochem. […] The cell lines were incubated at 37 °C, in a 5% CO2, 95% air atmosphere.
(§2) In the study MRC-5 non-cancerous human embryonic lung fibroblast and human colonic adenocarcinoma cell lines (doxorubicin-sensitive Colo 205 and multidrug resistant Colo 320 colonic adenocarcinoma cells) were used to determine the effect of compounds on cell growth. The effects of increasing concentrations of compounds on cell growth were tested in 96-well flat-bottomed microtiter plates. The stock solutions of the compounds were prepared in DMSO, and in the final samples the DMSO content was always lower than 1%. The compounds were diluted in a volume of 100 μL of medium.
(§3) In case of the colonic adenocarcinoma cells, the two-fold serial dilutions of compounds were prepared in 100 μL of RPMI 1640, horizontally. The semi-adherent colonic adenocarcinoma cells were treated with Trypsin-Versene (EDTA) solution. They were adjusted to a density of 1 × 10^4 cells in 100 μL of RPMI 1640 medium, and were added to each well, with the exception of the medium control wells. The final volume of the wells containing compounds and cells was 200 μL.
(§4) The culture plates were incubated at 37 °C for 72 h; at the end of the incubation period, 20 μL of MTT (Sigma) solution (from a stock solution of 5 mg/mL) were added to each well. After incubation at 37 °C for 4 h, 100 μL of sodium dodecyl sulfate (SDS) (Sigma) solution (10% in 0.01 M HCl) were added to each well and the plates were further incubated at 37 °C overnight. Cell growth was determined by measuring the optical density (OD) at 540/630 nm with Multiscan EX ELISA reader (Thermo Labsystems, Cheshire, WA, USA). […] Curves were fitted by Prism software (GraphPad Software Inc., San Diego, CA, USA) using the sigmoidal dose-response model (comparing variable and fixed slopes). The IC50 values were obtained from at least 3 independent experiments.

[2] = tested on: Colo 320 multidrug resistant human colonic adenocarcinoma cell line; experiment: MTT cytotoxicity assay, Colo 320; type: cell-based; conditions: for IC50: 72 h, MTT; for S.I. MRC-5/Colo 320: ratio of the indicated IC50 values
Method: as §1, §2, §3, §4

[3] = tested on: MRC-5 normal human embryonal lung fibroblast cells; experiment: MTT cytotoxicity assay, MRC-5; type: cell-based; conditions: 72 h
Method: as §1, §2, §3, §4

[4] = tested on: Enterococcus faecalis ATCC 29212; experiment: MIC determination (CLSI broth microdilution); type: cell-based; conditions: Gram-positive, ATCC 29212, 18 h
Method: (§5) Wild-type Escherichia coli K-12 AG100 strain [argE3 thi-1 rpsL xyl mtl Δ(gal-uvrB) supE44] expressing the AcrAB TolC EP at its basal level and Klebsiella pneumoniae ATCC 49,619 Gram-negative strains were studied in the experiments. Staphylococcus aureus ATCC 43,300 methicillin-resistant (MRSA) strain and Enterococcus faecalis ATCC 29,212 strain were used as Gram-positive strains in the assays. MIC values of the complexes were determined in 96-well plates based on the Clinical and Laboratory Standard Institute guidelines (CLSI guidelines). The stock solutions of the compounds (dissolved in DMSO using 10 mM concentration) were diluted in 100 μL of Mueller Hinton Broth. Then 10^−4 dilution of an overnight bacterial culture in 100 μL of medium was added to each well, with the exception of the medium control wells.

[5] = tested on: Escherichia coli K-12 AG100; experiment: MIC determination (CLSI broth microdilution); type: cell-based; conditions: Gram-negative, AG100, 18 h
Method: as §5

[6] = tested on: Klebsiella pneumoniae ATCC 49619; experiment: MIC determination (CLSI broth microdilution); type: cell-based; conditions: Gram-negative, ATCC 49619, 18 h
Method: as §5

[7] = tested on: Staphylococcus aureus ATCC 43300 methicillin-resistant (MRSA); experiment: MIC determination (CLSI broth microdilution); type: cell-based; conditions: Gram-positive, MRSA ATCC 43300, 18 h
Method: as §5

[8] = target: ABCB1 (P-glycoprotein) efflux pump (Homo sapiens, UniProt P08183); experiment: Rhodamine 123 uptake/retention fluorescence assay (flow cytometry) in Colo 320 cells
ABCB1 (P-glycoprotein) efflux pump, sequence (P08183 whole entry): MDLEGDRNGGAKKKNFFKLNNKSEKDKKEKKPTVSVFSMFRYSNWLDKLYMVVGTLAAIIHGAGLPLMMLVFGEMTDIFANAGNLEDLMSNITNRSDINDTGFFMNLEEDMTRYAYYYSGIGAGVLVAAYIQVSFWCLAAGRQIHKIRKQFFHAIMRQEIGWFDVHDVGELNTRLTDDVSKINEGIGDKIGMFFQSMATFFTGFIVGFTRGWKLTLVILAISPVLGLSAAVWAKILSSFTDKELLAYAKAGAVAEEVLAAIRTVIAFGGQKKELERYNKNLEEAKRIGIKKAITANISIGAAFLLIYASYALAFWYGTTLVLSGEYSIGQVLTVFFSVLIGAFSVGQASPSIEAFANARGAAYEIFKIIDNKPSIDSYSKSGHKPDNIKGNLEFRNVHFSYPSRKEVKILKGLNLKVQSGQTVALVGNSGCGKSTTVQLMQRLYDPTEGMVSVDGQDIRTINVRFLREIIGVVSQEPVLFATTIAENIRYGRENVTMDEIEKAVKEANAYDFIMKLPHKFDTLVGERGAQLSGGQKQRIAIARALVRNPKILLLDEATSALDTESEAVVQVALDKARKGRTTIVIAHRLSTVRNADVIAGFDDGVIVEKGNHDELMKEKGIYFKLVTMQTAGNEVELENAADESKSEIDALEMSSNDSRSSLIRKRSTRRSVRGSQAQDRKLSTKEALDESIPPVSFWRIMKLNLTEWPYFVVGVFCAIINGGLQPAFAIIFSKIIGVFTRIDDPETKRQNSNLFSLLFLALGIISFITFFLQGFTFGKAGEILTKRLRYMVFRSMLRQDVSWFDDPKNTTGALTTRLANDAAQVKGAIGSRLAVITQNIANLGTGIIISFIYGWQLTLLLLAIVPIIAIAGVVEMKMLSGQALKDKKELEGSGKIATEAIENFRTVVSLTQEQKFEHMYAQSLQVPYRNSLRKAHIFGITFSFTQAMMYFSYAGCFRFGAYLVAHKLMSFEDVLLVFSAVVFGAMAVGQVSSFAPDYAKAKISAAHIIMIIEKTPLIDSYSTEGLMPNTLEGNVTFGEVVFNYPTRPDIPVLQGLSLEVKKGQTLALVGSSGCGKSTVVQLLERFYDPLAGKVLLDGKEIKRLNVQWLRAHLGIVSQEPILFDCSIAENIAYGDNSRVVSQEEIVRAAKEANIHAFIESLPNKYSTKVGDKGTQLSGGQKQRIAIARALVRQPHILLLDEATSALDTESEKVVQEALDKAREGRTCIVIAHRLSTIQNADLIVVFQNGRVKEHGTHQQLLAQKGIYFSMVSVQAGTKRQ
Method: It is important to note, that the resistance of this cell line is primarily mediated by the overexpression of the ABC-transporter P-glycoprotein, which pumps out xenobiotics from the cytosol. […] This dye is membrane-permeable and is rapidly taken up by the cells; therefore, it can be effectively used for the screening of efflux pump inhibiting compounds. […] Then the fluorescence accumulation ratios (FAR) were calculated (Figure 1) according to the equation given in the Materials and Methods section. Verapamil was used as a reference inhibitor compound.
This fluorescence-based detection system uses verapamil (a first-generation, competitive EPI) as reference inhibitor. […] The tested compounds were added at different concentrations (2 and 20 µM; from 1 and 10 mM stock solutions, respectively) and the samples were incubated for 10 min at room temperature.
The parameters evaluated from flow cytometric experiments are forward scatter count (FSC, provides information about cell size); side scatter count (SSC, proportional to cell granularity or internal complexity); mean fluorescence of the cells (FL-1) and the computed FAR and FAR quotients (Table S1).

[9] = Solution stability and speciation (UV-vis, 1H-NMR, pH-potentiometry); conditions: PBS’, pH 7.4, 2% DMSO, up to 24 h
Method: In order to confirm our prediction, time-dependent UV-visible (UV-vis) spectra were recorded for complexes 5–8 at pH 7.4 in aqueous solution (in modified phosphate buffered saline (PBS) buffer—PBS’) and in Eagle’s minimum essential medium (EMEM) used for the cytotoxicity studies in the presence of 2% (v/v) dimethyl sulfoxide (DMSO). […] Additionally, ^1H-NMR spectra were recorded for more water-soluble complexes 6–8.
In order to compare the stability of 1 and 3 at physiological pH, a serial dilution was made and UV-vis spectra were recorded in a wide concentration range (10 μM–3 mM) (Figure S10).
(§6) Titrations were performed in a carbonate-free KOH solution (0.20 M). The exact concentration of HCl and KOH solutions was determined by pH-potentiometric titrations.
(§7) The path length (l) was usually 1 cm, and 2, 5, 20 or 50 mm cells were used occasionally. Equilibrium constants (proton dissociation, stability constants, conditional stability constants (K’7.4) for the formation of mim adducts) and the individual spectra of the species were calculated with the computer program PSEQUAD [55]. The spectrophotometric titrations were performed in aqueous solution of the complexes at 25.0 ± 0.1 °C at an ionic strength of 0.20 M (KCl). Spectrum of the solution of 200 μM complex upon addition of one or two equivalents of its own ligand or phen was also measured at pH 7.4. UV-vis spectra recorded for the complexes as a function of chloride concentrations or PTA (in case of the chlorido complexes) were used to investigate the co-ligand exchange processes at pH 7.4. […] In some cases, the measurements were performed in the presence of 1–2% (Cl^−/PTA exchange reactions) or 6–8% (v/v) (interaction of mim with complexes 2, 4) DMSO.
^1H-NMR stability studies were carried out on a Bruker Avance III HD 500 MHz instrument. All ^1H-NMR spectra were recorded on samples containing 10% (v/v) D2O with the WATERGATE water suppression pulse scheme using DSS internal standard. Stability of complexes 6–8 was checked over time by ^1H-NMR spectroscopy at 500 μM in PBS’ or in EMEM (with 10% (v/v) DMSO-d6).

Vero cells = experiment: MTT cytotoxicity in Vero cells (maximum non-toxic concentration); conditions: 24 h
Method: The antiviral effect of complexes against HSV-2 was screened using Vero cells (originally isolated from kidney epithelial cells) to host the growing viruses.
(§8) HeLa 229 cells (ATCC) and Vero cells (ATCC) were cultured in minimal essential medium (MEM) (Sigma, Steinheim, Germany) with Earle salts supplemented with 10% heat-inactivated fetal bovine serum (FBS) (Gibco; ThermoFisher Scientific, Inc., Waltham, MA, USA), 2 mM L-glutamine, 1× non-essential amino acids, 8 mM HEPES, 25 μg/mL gentamycin and 1 µg/mL fungisone. The cells were incubated for 1 h at room temperature to reduce the edge effect and then overnight at 37 °C, 5% CO2 to obtain a 90% confluent cell layer.
(§9) The density of cells was 4 × 10^4 cells/well in 100 µL of MEM with Earle salts supplemented with 10% heat-inactivated FBS, 2 mM L-glutamine, 1× MEM vitamins, 1× non-essential amino acids, 0.005% Na-pyruvate, 25 µg/mL gentamycin, 1 µg/mL fungisone). The plates were incubated for 1 h room temperature and then overnight at 37 °C, 5% CO2. Next day, when the cells reached a ~90% confluency, the medium was supplemented with the serial 2-fold dilutions of the complexes in three parallel wells for each concentration. […] After 24 h incubation for Vero cells and 48 h incubation for HeLa cells, 10 µL of the MTT (Sigma, Steinheim, Germany) labelling reagent (final concentration 0.5 mg/mL) was added to each well and the plate was incubated for 4 h at 37 °C, 5% CO2. After the incubation, 100 µL of the solubilisation solution (10% SDS in 1 M HCl) was added into each well, and the plate was allowed to stand overnight in the incubator at 37 °C, 5% CO2.

[10] = tested on: HeLa 229 human cervix carcinoma cells; experiment: MTT cytotoxicity in HeLa 229 cells (maximum non-toxic concentration); conditions: 48 h
Method: as §8, §9

physchem = experiment: physchem
Method: The solution speciation studies of complexes 1–4 were performed using UV-vis spectrophotometry and pH-potentiometry in the presence of 200 mM chloride ions.
as §6, §7

SMILES | IC50 [1] [µM] | IC50 [2] [µM] | IC50 [3] [nM] | MIC E. faecalis [4] [µM] | MIC E. coli [5] [µM] | MIC K. pneumoniae [6] [µM] | MIC S. aureus [7] [µM] | S.I. MRC-5/Colo 205 [1] | S.I. MRC-5/Colo 320 [2] | further results
Cc1ccc(C(C)C)cc1.[Cl][Ru]([Cl])[PH]12CN3CN(CN(C3)C1)C2 [RAPTA-C, [Ru(η^6-p-cymene) (PTA)Cl2], reference compound] | > 100 | > 100 | > 100000 | >100 | >100 | >100 | >100 |  |  | 
N.N.[Cl][Pt][Cl] [cisplatin, reference compound] | 29.8 ± 1.2 | 5.58 ± 0.7 | 880 ± 90 | >100 | >100 | >100 | >100 | 0.03 | 0.16 | 
Cc1ccc(C(C)C)cc1.[Cl-].[O-]c1c(I)cc(Cl)c2cccnc12.[Ru+2] [complex 5] | 21 ± 2.4 | 13.7 ± 0.85 | 2950 ± 710 | 12.5 | >100 | >100 | 25 | 0.14 | 0.21 | FAR fluorescence accumulation ratio ([8]; Colo 320, 2 μM): 6.19; FAR quotient (FAR related to that of 20 μM verapamil) ([8]; Colo 320, 2 μM): 128.7%; FSC forward scatter count ([8]; Colo 320, 2 μM): 1917; SSC side scatter count ([8]; Colo 320, 2 μM): 840; FAR fluorescence accumulation ratio ([8]; Colo 320, 20 μM): 3.66; FAR quotient (FAR related to that of 20 μM verapamil) ([8]; Colo 320, 20 μM): 76.0%; FSC forward scatter count ([8]; Colo 320, 20 μM): 1950; SSC side scatter count ([8]; Colo 320, 20 μM): 877; FL-1 mean fluorescence of the cells ([8]; Colo 320, rhodamine 123, 2 μM): 32.7; FL-1 mean fluorescence of the cells ([8]; Colo 320, rhodamine 123, 20 μM): 19.3; FAR value ([8]; Colo 320, tested at 2 μM and 20 μM): above 2; stability in PBS’ at pH 7.4, time-dependent UV-vis spectra [9]: No characteristic UV-vis spectral changes within 24 h; concentrations at which maximum cytotoxicity was observed, Vero (Vero cells): 12.5 to 100 µM; maximum non-toxic concentration, Vero (Vero cells): 6.25 µM; maximum non-toxic concentration, HeLa 229 [10]: 25 µM
On1ccc2ccccc2c1=S [HHiQT, 2-hydroxyisoquinoline-1(2H)-thione] |  |  |  |  |  |  |  |  |  | pKa (physchem): 4.63 ± 0.08

Source: article PMC8226722, “Comparison of Solution Chemical Properties and Biological Activity of Ruthenium Complexes of Selected β-Diketone, 8-Hydroxyquinoline and Pyrithione Ligands” (Pharmaceuticals, 2021)
